Where “and” joins values, the source holds several entries; their conditions need not be identical. Equal entries are not always repeated.
Assay: xn = mol fraction of the nth substance listed

CCOS(=O)(=O)[O-].CC[n+]1ccn(C)c1 + OCCO
100 kPa
Conditions | electrical conductivity | viscosity
293.15 K, x1 = 0.2999 | – | 20.52 mPa·s
293.15 K, x2 = 0.406 | – | 41.6 mPa·s
298.15 K, x1 = 0.001 | 0.0067 S/m and 0.0121 S/m | 16 mPa·s and 16.9 mPa·s
298.15 K, x2 = 0 | – | 95.9 mPa·s
298.15 K, x2 = 0.597 | 0.95 S/m | 21.7 mPa·s
298.15 K, x2 = 0.851 | 0.72 S/m | 14.8 mPa·s
303.15 K, x1 = 0.001 | – | 13.8 mPa·s
303.15 K, x1 = 0.5992 | – | 28.04 mPa·s
303.15 K, x1 = 0.6994 | – | 37.14 mPa·s
303.15 K, x2 = 0.792 | – | 13 mPa·s
308.15 K, x1 = 0.1982 | – | 10.85 mPa·s
308.15 K, x1 = 0.2999 | – | 12.62 mPa·s
313.15 K, x1 = 0.001 | 0.0115 S/m and 0.0206 S/m | 9.15 mPa·s and 9.54 mPa·s
313.15 K, x1 = 0.003 | 0.0362 S/m | 9.48 mPa·s
313.15 K, x1 = 0.008 | 0.097 S/m | 9.49 mPa·s
313.15 K, x1 = 0.1982 | – | 9.37 mPa·s
313.15 K, x2 = 0.406 | 1.27 S/m | 20.6 mPa·s
313.15 K, x2 = 0.938 | 0.59 S/m | 9.05 mPa·s
318.15 K, x1 = 0.1982 | – | 8.15 mPa·s
318.15 K, x1 = 0.4002 | – | 11.61 mPa·s
318.15 K, x1 = 0.8001 | – | 27.31 mPa·s
318.15 K, x1 = 0.8993 | – | 35.33 mPa·s
323.15 K, x1 = 0.1003 | – | 6.66 mPa·s
333.15 K, x1 = 0.1003 | – | 5.1 mPa·s
333.15 K, x1 = 0.1982 | – | 5.59 mPa·s
333.15 K, x1 = 0.5005 | – | 9.85 mPa·s
338.15 K, x1 = 0.5992 | – | 10.45 mPa·s
343.15 K, x1 = 0.5005 | – | 7.87 mPa·s
343.15 K, x1 = 0.5992 | – | 9.34 mPa·s
343.15 K, x1 = 0.8001 | – | 13.58 mPa·s

C[NH+](C)C.O=S(=O)([N-]S(=O)(=O)C(F)(F)F)C(F)(F)F + CC1COC(=O)O1
298.15 K, 101 kPa
Conditions | electrical conductivity [S/m]
x1 = 0.0001 | 0.003
x1 = 0.0137 | 0.352
x2 = 0.6243 | 1.61
x2 = 0.7417 | 1.64
x2 = 0.8037 | 1.53
x2 = 0.979 | 0.476
